In one experiment the target is RIPK1 (Homo sapiens (Human), UniProt Q13546). Put plainly: RIPK1 ADP-Glo biochemical kinase assay. To be noted: read-out: RIPK1 ADP-Glo Kinase (IC50). The procedure: The final reaction volume was 5.0ul.
Adding 5 μl of ADP-Glo™ terminated the reaction.
(In general: In ADP-Glo the light output rises with the ADP produced.)

Another experiment concerns L929 cells. The experiment can be described thus: L929 cell necroptosis assay (TNFa + zVAD, CellTiter-Glo). In kind it is cell-based, murine. To be noted: Mus musculus, L929, L929 cells, TNFa + zVAD; read-out: L929-CTG-recovery, L929, TNFa + zVAD (IC50). An outline of the steps: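 Murine L929 cells, plated 18 h beforehand at 10K cells/well in RPMI 1640 with 10% FBS, were switched to medium containing 40 uM zVAD-fmk and given compound from 4-fold serial dilutions. Viability after 18 h of TNFa stimulation at 37° C was read by CellTiter-Glo luminescence.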
On the technique in general: Cellular ATP, detected with luciferase, serves as a proxy for viable cell number.

Another experiment concerns U937 cells. Put plainly: U937 cell necroptosis assay (TNFa + zVAD, CellTiter-Glo). In kind it is cell-based, human. The note with it: Homo sapiens, U-937, U937 cells, TNFa + zVAD; read-out: U937 Zvad TNF CTG Recovery, U937, TNFa + zVAD (IC50). An outline of the steps: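 Human U937 and murine L929 cells in RPMI 1640/10% FBS were pre-incubated 1 h at 37 °C with serially diluted compound plus zVAD-fmk (U937 plated with 60 uM, L929 medium with 40 uM), then stimulated with 2 ng/mL TNFa (final). Viability read by CellTiter-Glo luminescence after 18 h.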

15 compounds from patent US11407736B2 (priority 2019, dated 2022) can be followed below.

RIPK1, sequence (Q13546 whole entry, species assumed): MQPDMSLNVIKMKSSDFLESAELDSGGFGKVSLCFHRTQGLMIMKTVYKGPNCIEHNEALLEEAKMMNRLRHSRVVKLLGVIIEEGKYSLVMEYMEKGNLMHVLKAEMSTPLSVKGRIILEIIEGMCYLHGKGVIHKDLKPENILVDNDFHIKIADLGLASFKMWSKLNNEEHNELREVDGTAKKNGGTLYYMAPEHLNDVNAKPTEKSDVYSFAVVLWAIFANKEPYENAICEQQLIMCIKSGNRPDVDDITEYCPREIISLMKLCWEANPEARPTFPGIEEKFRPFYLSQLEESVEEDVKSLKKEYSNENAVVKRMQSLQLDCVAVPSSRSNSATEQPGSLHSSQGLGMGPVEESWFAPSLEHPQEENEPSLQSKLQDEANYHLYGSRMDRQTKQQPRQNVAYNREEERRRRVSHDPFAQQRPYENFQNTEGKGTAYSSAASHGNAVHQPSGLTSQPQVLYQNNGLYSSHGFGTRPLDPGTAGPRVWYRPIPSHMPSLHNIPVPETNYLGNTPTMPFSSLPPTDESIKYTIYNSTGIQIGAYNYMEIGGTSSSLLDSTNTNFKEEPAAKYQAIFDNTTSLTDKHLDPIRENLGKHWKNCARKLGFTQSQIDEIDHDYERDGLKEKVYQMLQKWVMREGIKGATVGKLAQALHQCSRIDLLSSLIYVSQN

Broadly, the IC50 is the midpoint of a concentration-inhibition curve. For the compound `CN1C(=O)[C@@H](NC(=O)c2nnc(Cc3ccccc3)o2)COc2ccc(C#CC(C)(C)O)cc21` [Compound I-71, (S)-5-benzyl-N-(7-(3-hydroxy-3-methylbut-1-yn-1-yl)-5-methyl-4-oxo-2,3,4,5-tetrahydrobenzo[b][1,4]oxazepin-3-yl)-1,3,4-oxadiazole-2-carboxamide], the half-inhibitory concentration (IC50) at RIPK1 was determined as 21.7 nM; in the experiment on L929 cells, 0.2 nM; with U937 cells, 0.9 nM.

For the compound `CN1C(=O)[C@@H](NC(=O)c2ncn(Cc3c(Cl)cccc3Cl)n2)COc2ccc(CN3CCN(c4ccncc4)CC3)cc21` [Compound I-21, (S)-1-(2,6-dichlorobenzyl)-N-(5-methyl-4-oxo-7-((4-(pyridin-4-yl)piperazin-1-yl)methyl)-2,3,4,5-tetrahydrobenzo[b][1,4]oxazepin-3-yl)-1H-1,2,4-triazole-3-carboxamide], the 50% inhibitory concentration (IC50) turned out to be 77 nM at RIPK1, 1310 nM in the experiment with L929 cells and 2.5 nM with U937 cells.

Regarding `CN1C(=O)[C@@H](NC(=O)c2cc(Oc3ccccc3)ccn2)COc2ccc(C#CC3(O)CCC3)cc21` [Compound I-120, (S)—N-(7-((1-hydroxycyclobutyl)ethynyl)-5-methyl-4-oxo-2,3,4,5-tetrahydrobenzo[b][1,4]oxazepin-3-yl)-4-phenoxypicolinamide], the 50% inhibitory concentration (IC50) on RIPK1 amounted to 29.6 nM; in the experiment with L929 cells, 61.5 nM; with U937 cells it was 0.5 nM.

Regarding `CN1C(=O)[C@@H](NC(=O)c2ncn(Cc3ccccc3)n2)COc2ccc(CN3CCn4c(nnc4C(F)(F)F)C3)cc21` [Compound I-46, (S)-1-benzyl-N-(5-methyl-4-oxo-7-((3-(trifluoromethyl)-5,6-dihydro-[1,2,4]triazolo[4,3-a]pyrazin-7(8H)-yl)methyl)-2,3,4,5-tetrahydrobenzo[b][1,4]oxazepin-3-yl)-1H-1,2,4-triazole-3-carboxamide], the figures for the IC50 at RIPK1, in the experiment with L929 cells and in the experiment with U937 cells were 43.7 nM, 0.4 nM and 1.2 nM, respectively.

Take `COC(C)(C)C#Cc1ccc2c(c1)N(C)C(=O)[C@@H](NC(=O)c1n[nH]c(Cc3ccccc3)n1)CO2` [Compound I-61, (S)-5-benzyl-N-(7-(3-methoxy-3-methylbut-1-yn-1-yl)-5-methyl-4-oxo-2,3,4,5-tetrahydrobenzo[b][1,4]oxazepin-3-yl)-1H-1,2,4-triazole-3-carboxamide]: the half-inhibitory concentration (IC50) came out at 65.4 nM at RIPK1, 1.3 nM in the experiment on L929 cells and 3.4 nM in the experiment with U937 cells.

In the case of `CN1C(=O)[C@@H](NC(=O)c2cc(OC3CCCC3)ccn2)COc2ccc(C#CC(C)(C)O)cc21` [Compound I-156, (S)-4-(cyclopentyloxy)-N-(7-(3-hydroxy-3-methylbut-1-yn-1-yl)-5-methyl-4-oxo-2,3,4,5-tetrahydrobenzo[b][1,4]oxazepin-3-yl)picolinamide], the IC50 on RIPK1 was 27.3 nM; with L929 cells, 10300 nM; with U937 cells, 55.4 nM.

For the compound `CN1C(=O)[C@@H](NC(=O)c2n[nH]c(Cc3ccccc3)n2)COc2ccc(C#CCN3CCOCC3)cc21` [Compound I-96, (S)-5-benzyl-N-(5-methyl-7-(3-morpholinoprop-1-yn-1-yl)-4-oxo-2,3,4,5-tetrahydrobenzo[b][1,4]oxazepin-3-yl)-1H-1,2,4-triazole-3-carboxamide], the IC50 is 31.7 nM at RIPK1, 0.8 nM in the experiment with L929 cells and 3.1 nM with U937 cells.

Turning to `CN1C(=O)[C@@H](NC(=O)c2cc(Oc3ccccc3)ccn2)COc2ccc(C#CC3(O)CCS(=O)(=O)CC3)cc21` [Compound I-207, (S)—N-(7-((4-Hydroxy-1,1-dioxidotetrahydro-2H-thiopyran-4-yl)ethynyl)-5-methyl-4-oxo-2,3,4,5-tetrahydrobenzo[b][1,4]oxazepin-3-yl)-4-phenoxypicolinamide], the half-maximal inhibitory concentration (IC50) came to 27.9 nM on RIPK1, 116 nM with L929 cells and 0.5 nM in the experiment on U937 cells.

As to `CN1CCC(O)(C#Cc2ccc3c(c2)N(C)C(=O)[C@@H](NC(=O)c2cc(Oc4ccc(F)cc4)ccn2)CO3)CC1` [Compound I-135, (S)-4-(4-fluorophenoxy)-N-(7-((4-hydroxy-1-methylpiperidin-4-yl)ethynyl)-5-methyl-4-oxo-2,3,4,5-tetrahydrobenzo[b][1,4]oxazepin-3-yl)picolinamide], the IC50 at RIPK1 was 111 nM; in the experiment on L929 cells, 2630 nM; in the experiment on U937 cells, 224 nM.

In the case of `CN1C(=O)[C@@H](NC(=O)c2n[nH]c(Cc3ccccc3)n2)COc2ccc(CCCCNc3ccccn3)cc21` [Compound I-17, (S)-5-benzyl-N-(5-methyl-4-oxo-7-(4-(pyridin-2-ylamino)butyl)-2,3,4,5-tetrahydrobenzo[b][1,4]oxazepin-3-yl)-1H-1,2,4-triazole-3-carboxamide], the figures for the concentration for half-maximal inhibition (IC50) on RIPK1, with L929 cells and in the experiment on U937 cells were 491 nM, 368 nM and 2.4 nM, respectively.

As to `CN1C(=O)[C@@H](NC(=O)c2n[nH]c(Cc3ccc(F)cc3)n2)COc2ccc(C#CC(C)(C)O)cc21` [Compound I-79, (S)-5-(4-fluorobenzyl)-N-(7-(3-hydroxy-3-methylbut-1-yn-1-yl)-5-methyl-4-oxo-2,3,4,5-tetrahydrobenzo[b][1,4]oxazepin-3-yl)-1H-1,2,4-triazole-3-carboxamide], the results for the concentration for half-maximal inhibition (IC50) at RIPK1, in the experiment on L929 cells and in the experiment on U937 cells were 34.7 nM, 0.8 nM and 5.1 nM, respectively.

For `CN1C(=O)[C@@H](NC(=O)c2ncn(Cc3ccccc3F)n2)COc2ccc(CCC(=O)O)cc21` [Compound I-6, (S)-3-(3-(1-(2-fluorobenzyl)-1H-1,2,4-triazole-3-carboxamido)-5-methyl-4-oxo-2,3,4,5-tetrahydrobenzo[b][1,4]oxazepin-7-yl)propanoic acid], the 50% inhibitory concentration (IC50) at RIPK1 was determined as 72.4 nM; in the experiment on L929 cells, 97500 nM; with U937 cells, 43.8 nM.

Regarding `CN1C(=O)[C@@H](NC(=O)c2cc(Oc3cccc(F)c3)ccn2)COc2ccc(C#CC(C)(C)O)cc21` [Compound I-107, (S)-4-(3-fluorophenoxy)-N-(7-(3-hydroxy-3-methylbut-1-yn-1-yl)-5-methyl-4-oxo-2,3,4,5-tetrahydrobenzo[b][1,4]oxazepin-3-yl)picolinamide], the IC50 on RIPK1 worked out at 23.1 nM; in the experiment with L929 cells, 161 nM; in the experiment with U937 cells, 1.3 nM.

`CC(=O)O[C@@H](C(=O)O)[C@@H](OC(C)=O)C(=O)OCC(C)(C)C#Cc1ccc2c(c1)N(C)C(=O)[C@@H](NC(=O)c1cc(Oc3ccccc3)ccn1)CO2` [Compound I-145, (2R,3R)-2,3-diacetoxy-4-((2,2-dimethyl-4-((S)-5-methyl-4-oxo-3-(4-phenoxypicolinamido)-2,3,4,5-tetrahydrobenzo[b][1,4]oxazepin-7-yl)but-3-yn-1-yl)oxy)-4-oxobutanoic acid]: the IC50 at RIPK1 worked out at 27.5 nM; in the experiment with L929 cells it was 3050 nM; with U937 cells, 8.6 nM.

Consider `CN(C)CC#Cc1ccc2c(c1)N(C)C(=O)[C@@H](NC(=O)c1cc(Oc3ccccc3)ccn1)CO2` [II-36, (S)—N-(7-(3-(dimethylamino)prop-1-yn-1-yl)-5-methyl-4-oxo-2,3,4,5-tetrahydrobenzo[b][1,4]oxazepin-3-yl)-4-phenoxypicolinamide], for which the IC50 amounted to 38.9 nM at RIPK1, 132 nM in the experiment with L929 cells and 1.6 nM in the experiment with U937 cells.
